Patent US10982252B2, “Bacterial systems for analyzing ubiquitylated polypeptides” (Technology Innovation Momentum Fund (Israel) Limited …, priority 2016, dated 2021)
One block for each molecule: values may come before it.

How the values were obtained:
Siah2 = target: T1, Siah2 (Homo sapiens, UniProt O43255); test: Ubiquitination-dependent E. coli growth assay, bacteria addicted to Siah2 self-ubiquitination; type: cell-based; details: only under the addictive conditions (selective media, TRIM); FIG. 2B right
T1 construct: expressed in transfected cells; host or cells: E. coli W3110
T1 sequence (O43255 1-324): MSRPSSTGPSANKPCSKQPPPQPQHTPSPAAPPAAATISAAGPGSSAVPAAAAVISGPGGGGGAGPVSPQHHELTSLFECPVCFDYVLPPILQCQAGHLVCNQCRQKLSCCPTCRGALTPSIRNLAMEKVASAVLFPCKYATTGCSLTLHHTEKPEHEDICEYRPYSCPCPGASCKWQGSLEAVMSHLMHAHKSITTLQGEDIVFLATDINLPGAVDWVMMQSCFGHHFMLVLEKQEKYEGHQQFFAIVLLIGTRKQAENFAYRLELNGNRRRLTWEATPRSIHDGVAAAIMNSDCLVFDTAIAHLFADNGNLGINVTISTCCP
Description: Ubiquitination-dependent E. coli growth assay: E. coliW3110 (from Ezra Yagil laboratory at TAU) were co-transformed with the pND-Ub and the pCD-Sub plasmids and plated on LB agar supplemented with 34 μg/ml kanamycin and 25 μg/ml streptomycin. 5 ml of liquid LB medium supplemented with the same antibiotic concentrations were inoculated with a single colony and left to grow overnight at 37° C. The culture was harvested and washed twice with 5 ml of minimal Davis medium. The optical density (OD600.) was measured and adjusted to 0.2. Two and a half microliters of the diluted cultures from each sample were spotted on agar Davis plates containing 0, 0.5, 5, 10, 20 or 50 μg/ml of TRIM. The plates were incubated for 2-3 days at 30° C. and photographed with a UV camera in identical conditions. Each spotting assay was repeated at least 6 times.
Most E3-ligases undergo self-ubiquitination^20. The developed selection system thus provides a straightforward tool for their identification and characterization as self-ubiquitination is predicted to confer antibiotic resistance. Yeast Rsp5 and human Siah2, representatives of the HECT and the RING ligases, respectively, were fused to cDHFR. Growth phenotypes were observed under non-permissive conditions, only when all the required ubiquitination components were co-expressed (FIGS. 2A-B). […]

Ub [1] = test: Surface plasmon resonance, immobilized Sc_ENTH and free mono-Ub; type: binding; details: mutant complexes; Ub concentrations too low for accurate Kd, high standard errors
Description: Surface plasmon resonance: Purified His6-MBP-ENTH or mutants were immobilized on an Ni^+2 chip at a density of ˜800U. Untagged Ub (analyte) was injected at a flow rate of […] in 150 mM NaCl, 10 mM HEPES pH 7.0 and 0.010% poly-sorbate 20 at 24° C.; 500 mM imidazole was used for surface regeneration. To avoid immobilization of aggregated analyte the purified Ub was chromatographed by gel filtration and briefly sonicated immediately before SPR experiments. Data were processed with BioEvaluation and fitting carried out as a single-site-binding model with OriginLab. Standard errors derived from at least three samples.
Finally, to biophysically corroborate the data and to quantify the affinity of the ENTH:Ub complex, Surface Plasmon Resonance (SPR) measurements were performed with immobilized Sc_ENTH and free mono-Ub (FIG. 5I). […] Together, the correlation between the SPR measurements, the genetic and biochemical data provides a rough estimation for the sensitivity of the selection system in monitoring Ub binding.

E1 = target: T2, E1 (Triticum aestivum, UniProt P20973); test: Selection experiments in solution growth media (96-well, TRIM with or without Pyr-41), Hrs dsUIM ubiquitination; type: cell-based; details: 100 μM Pyr-41, with or without TRIM, n=9; FIG. 3D
T2 construct: expressed in transfected cells; host or cells: E. coli
T2 sequence (P20973 1-1051): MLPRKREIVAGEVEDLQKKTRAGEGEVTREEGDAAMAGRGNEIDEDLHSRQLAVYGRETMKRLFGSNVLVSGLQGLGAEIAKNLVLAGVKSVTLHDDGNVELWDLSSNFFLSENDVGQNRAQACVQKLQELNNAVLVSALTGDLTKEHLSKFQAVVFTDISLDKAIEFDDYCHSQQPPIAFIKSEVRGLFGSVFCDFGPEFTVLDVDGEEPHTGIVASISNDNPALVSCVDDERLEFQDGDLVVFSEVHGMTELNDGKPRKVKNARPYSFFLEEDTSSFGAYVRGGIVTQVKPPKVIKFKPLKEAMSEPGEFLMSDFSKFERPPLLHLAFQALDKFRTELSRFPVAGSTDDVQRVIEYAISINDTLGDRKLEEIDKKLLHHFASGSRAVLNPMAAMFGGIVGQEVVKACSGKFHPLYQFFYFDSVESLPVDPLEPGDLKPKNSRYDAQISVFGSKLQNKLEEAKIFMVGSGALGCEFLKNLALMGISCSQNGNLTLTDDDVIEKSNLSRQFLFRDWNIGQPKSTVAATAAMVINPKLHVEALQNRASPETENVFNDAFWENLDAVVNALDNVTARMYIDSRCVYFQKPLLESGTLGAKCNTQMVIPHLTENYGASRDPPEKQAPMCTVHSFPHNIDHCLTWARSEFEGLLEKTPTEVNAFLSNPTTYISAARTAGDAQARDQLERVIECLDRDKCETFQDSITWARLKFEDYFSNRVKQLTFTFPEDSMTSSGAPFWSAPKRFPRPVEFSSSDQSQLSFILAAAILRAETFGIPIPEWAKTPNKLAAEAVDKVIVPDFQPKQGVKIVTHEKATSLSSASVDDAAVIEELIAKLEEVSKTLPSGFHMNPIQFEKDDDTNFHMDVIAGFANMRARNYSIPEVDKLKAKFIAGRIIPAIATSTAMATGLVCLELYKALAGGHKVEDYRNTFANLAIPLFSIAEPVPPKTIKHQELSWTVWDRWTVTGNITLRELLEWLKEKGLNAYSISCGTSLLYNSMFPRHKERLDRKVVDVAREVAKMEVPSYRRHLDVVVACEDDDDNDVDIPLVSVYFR
Description: Selection experiments in solution growth media: Overnight cultures in LB medium (supplemented with 30 μg/ml kanamycin and 25 μg/ml streptomycin) were harvested and re-suspended in Davis minimal medium. Diluted cells (OD600, 0.2) were grown at 30° C. in 96-well plates containing 0.2 ml Davis medium supplemented with 0, 1, 5, 7, 10 and 12 μg/ml TRIM and with or without 100 μM Pyr-41. Growth rates were monitored by measuring the optical density (OD595) using a microplate spectrophotometer. Doubling time was calculated for early logarithmic growth (OD595 between 0.02 and 0.2). All experiments were performed at least 9 times (n=9).
The selection system stabilizes the dynamic and weak UBD:Ub non-covalent interactions by forming a covalent bond between Ub and Ub-receptor (i.e. ubiquitination) in the bacteria. The present inventors assessed the ability of the system to sense low affinity UBD by tethering the double-sided UIM (dsUIM) of Hrs as substrate^27,28 (FIG. 3A). The structures of Hrs:STAM (also known as ESCRT-0 complex) and particularly its dsUIM:Ub complex, were determined and facilitated detailed molecular assessment^29,30. The E3-independent self-ubiquitination of most Ub-receptors and the promiscuous function of Ubc4/5 subfamily members aided in the analysis. […] Similarly, I44-patch mutant abolished bacterial growth.

Ub [2] = target: Ub (Homo sapiens, UniProt P0CG47); details: reference 26; read-out: affinity of VHS:Ub complex; cited from earlier work

- growth phenotype in the presence of menadione (Siah2): growth arrest phenotype
Molecule: CC1=CC(=O)c2ccccc2C1=O [menadione]

Molecule: Ub R42E, R72E: R42E, R72E double mutant of ubiquitin
- estimated affinity, fold lower than that of the wild-type (Ub [1]): 2.6 fold

Molecule: CCOC(=O)c1ccc(N2NC(=O)/C(=C/c3ccc([N+](=O)[O-])o3)C2=O)cc1 [PYR41]
- effect on bacterial growth (relative growth rates at log phase) (E1): attenuates bacterial growth only in the non-permissive conditions

B1: Vps27: VHS domain of Vps27 in VHS:Ub complex (protein)
chain: IHSVDLSDEEKDSIYMFASLVEKMKSRPLNEILEDSKLQNLAQRVFASKARLNYALNDKAQKYNTLIEMNGKISEIMNIYDRLLEQQLQSINLSQQMEKKITGYTTVDISQWHRKEHFEAFQSVAQ
modifications: left off: small tags and cut ends
notes: VHS domain of Vps27 in VHS:Ub complex
- Kd (Ub [2]): 1500 µM
